# Laboratory results as given in patent publication US20200062719A1, “Application of Imidazopyridine Derivatives in Regenerative Medicine” (University of Heidelberg, priority 2018, published 2020).
# Assays:
# human fibroblasts = assay: Episome-based reprogramming of human fibroblasts, AP+ / iPSC-like colonies; format: cell-based
# Experimental: O4I3 was applied in commercially available episome-based reprogramming cocktail containing episomal vectors for overexpression of Oct4, Sox2, Klf4, Lin28 and L-Myc, as well as suppression of p53. In comparison to non-treated fibroblast cultures, 20 times more alkaline phosphatase (AP) positive colonies were detected in the presence of O4I3 at a concentration of 50 nM in two tested human primary fibroblasts (HF1 and HF2) (FIG. 13).
# It is known in the art that senescence or other unknown factors can confer donor fibroblasts resistance to reprogramming. Therefore, O4I3 was tested for its ability to enable reprogramming of refractory fibroblasts. Two human fibroblasts were selected. HFF-LTR7-EGFP at passage >40 carrying EGFP driven by a LTR7 promoter, which was activated during reprogramming, and HF5, isolated from a patient sample, both of which were resistant to an episome-based reprogramming approach (FIG. 13).
# Epi5® Episomal iPSC Reprogramming Kit (Life technologies) was used to reprogram human fibroblasts according to the manufacturer's protocol. Briefly, 5,000-50,000 cells were seeded in a 24-well plate for 24 h and then transfected with episomal vectors in N2 B27 medium. After 14 days, cells were re-suspended with 0.5 mM EDTA and re-plated in a 6-well plate in Essential®8 medium. Colonies were isolated after 3-4 weeks with the help of alkaline phosphatase (AP) live stain (Life technologies). Medium was refreshed daily.
# [1] = test system: reprogramming-related proteins; assay: Phosphorylation microarray in NCCIT and JoPaca-1 cells; format: cell-based; conditions: NCCIT and JoPaca-1, 1 μM, 24 hours
# Experimental: Cells were analysed in the presence (24 hours O4I3 1 μM) or absence (NT) of O4I3.
# The cellular responses to O4I3 was analyzed in two stem cell lines, NCCIT and JoPaca-1 (FIG. 10).
# H3K4Me3 = assay: Global H3K4Me3 level in fibroblasts (immunocytochemistry, immunoblotting); format: cell-based, human
# Source text: The inventors investigated the transfection efficiency in HF1 and HF4 using the same episomal vector carrying cytomegalovirus (CMV)-driven GFP. The inventors could not observe a significant difference between two cell lines, as determined by FACS analysis. […] To study the epigenetic effects of O4I3 and its relevance to reprogramming, the inventors focused on two histone modifications at the promoter of OCT4, namely, H3K4Me3, known to be related to gene activation, and H3K27Me3, which indicates gene repression. […] The level of H3K27Me3 at the OCT4 promoter was minimally affected in our experiments (FIG. 17C). […] Immunoblotting confirmed a dose- and time-dependent increase of global H3K4Me3 expression in fibroblast, whereas H3K27Me3 remained mostly unaffected (FIG. 17E). In an in vitro methylation assay, O4I3 protected methylated H3K4 with an […] value of 20 nM (FIG. 17F). Trimethylation of H3K9 has been reported to block reprogramming by recruiting heterochromatin protein 1 to form heterochromatin at the core of pluripotency loci, which interferes with the hypermethylation of H3K4. […]
# Fibroblasts were treated with O4I3 0.5 μM for 2 days in the presence/absence of reprogramming transcription factors. […] The signal intensity was analyzed using ImageJ software as single cell level randomly selected from at least three independent experiments.
# promoter of Oct4 = assay: ChIP-qPCR of H3K4Me3 at the promoter of Oct4 in reprogramming-resistant fibroblasts; format: cell-based, human; conditions: reprogramming-resistant patient fibroblasts
# Source text: The importance of active tri-methylation of histone H3 lysine 4 (H3K4Me3) in promoting transcription factors binding to an ‘open’ chromatin state and thereby initiation of reprogramming is known in the art. In good agreement, the inventors found the abundance of H3K4Me3 in O4I3-treated reprogramming-resistant fibroblasts by immunostaining (FIG. 14) and immunoblotting (FIG. 5B). To directly study if O4I3 facilitated the binding of H3K4Me3 to the promoter of Oct4, a CHIP-qPCR experiment was performed.
# In reprogramming-resistant HF4, the level of H3K4Me3 at the promoter of OCT4 was increased by OSKM, but was still nearly 1,000-fold lower than that in PSCs (FIG. 19A). […] However, a clear influence on H3K4 methylation was not observed in the presence of KDM5B-, KDM5C-, or KDM5D-siRNA (FIG. 19A). […] Indeed, the reprogramming efficiency is negatively correlated with the expression of KDM5A in 11 HFs (FIG. 19D). Moreover, KDM5A siRNA increased the global level of H3K4Me3 in a dose-dependent manner (FIG. 19E). Of note, the alternation in the occupation of H3K27Me3 at the promoter of OCT4 was more refractory to chemical inhibition or genetic repression of KDM5s in the inventors' experiments (FIG. 19B). […]
smiles,measurement,setting,value
"Cc1ccc(-c2cn3cc(C)ccc3n2)cc1 [O4I3, 6-methyl-2-(p-tolyl)imidazo[1,2-a]pyridine]",alkaline phosphatase (AP) positive colonies in comparison to non-treated fibroblast cultures,"human fibroblasts; 50 nM, HF1 and HF2",20 times
same,reprogramming of resistant fibroblasts,"human fibroblasts; 500 Nm, HFF-LTR7-EGFP and HF5",appearance of iPSC-like colonies
same,activation of Erk1,[1],selectively activated
same,activation of Erk2,[1],not
same,global level of H3K4Me3,H3K4Me3,increase of H3K4Me3
same,enrichment of H3K4Me3 at the promoter of Oct4,promoter of Oct4,increased enrichment
